# Biological target: Calpain-1 (Sus scrofa)
# Experiment: In vitro inhibition of porcine mu-calpain.
row,Compound,IC50 [nM]
1,CC(C)[C@H](NS(=O)(=O)c1ccc(Cl)cc1)C(=O)N[C@@H](C=O)Cc1ccccc1 [2-(4-Chloro-benzenesulfonylamino)-N-(1-formyl-2-phenyl-ethyl)-3-methyl-butyramide],14
2,CC(C)C[C@H](C=O)NC(=O)[C@@H](NS(=O)(=O)c1ccc(Cl)cc1)C(C)C [2-(4-Chloro-benzenesulfonylamino)-N-(1-formyl-3-methyl-butyl)-3-methyl-butyramide],31
3,CC(C)[C@H](NS(=O)(=O)c1ccc(Cl)cc1)C(=O)N[C@@H](C=O)Cc1c[nH]c2ccccc12 [2-(4-Chloro-benzenesulfonylamino)-N-[1-formyl-2-(1H-indol-3-yl)-ethyl]-3-methyl-butyramide],13
4,CC(C)[C@H](NS(=O)(=O)c1ccc(F)cc1)C(=O)N[C@@H](C=O)Cc1ccccc1 [2-(4-Fluoro-benzenesulfonylamino)-N-(1-formyl-2-phenyl-ethyl)-3-methyl-butyramide],27
5,Cc1ccc(S(=O)(=O)N[C@H](C(=O)N[C@@H](C=O)Cc2ccccc2)C(C)C)cc1 [N-(1-Formyl-2-phenyl-ethyl)-3-methyl-2-(toluene-4-sulfonylamino)-butyramide],18
6,Cc1ccc(S(=O)(=O)N[C@H](C(=O)N[C@@H](C=O)CC(C)C)C(C)C)cc1 [N-(1-Formyl-3-methyl-butyl)-3-methyl-2-(toluene-4-sulfonylamino)-butyramide],28

# Further lines, results first:
row,IC50 [nM],Compound
1,630,CC(C)[C@H](NS(=O)(=O)c1ccc(F)cc1)C(=O)N[C@H](C)C=O [2-(4-Fluoro-benzenesulfonylamino)-3-methyl-N-(1-methyl-2-oxo-ethyl)-butyramide]
2,23,CC(C)[C@H](NS(=O)(=O)c1ccc(F)cc1)C(=O)N[C@@H](C=O)Cc1c[nH]c2ccccc12 [2-(4-Fluoro-benzenesulfonylamino)-N-[1-formyl-2-(1H-indol-3-yl)-ethyl]-3-methyl-butyramide]
3,21000,CC(C)C[C@H](C=O)NC(=O)[C@H](C(C)C)N(C)S(=O)(=O)c1ccc(F)cc1 [2-[(4-Fluoro-benzenesulfonyl)-methyl-amino]-N-(1-formyl-3-methyl-butyl)-3-methyl-butyramide]
4,14,CC(C)[C@H](NS(=O)(=O)c1ccc2ccccc2c1)C(=O)N[C@@H](C=O)Cc1ccccc1 [N-(1-Formyl-2-phenyl-ethyl)-3-methyl-2-(naphthalene-2-sulfonylamino)-butyramide]
5,830,CC(C)C[C@H](C=O)NC(=O)[C@@H](NS(C)(=O)=O)C(C)C [N-(1-Formyl-3-methyl-butyl)-2-methanesulfonylamino-3-methyl-butyramide]
6,10,CC(C)C[C@H](C=O)NC(=O)[C@@H](NS(=O)(=O)c1ccc2ccccc2c1)C(C)C [N-(1-Formyl-3-methyl-butyl)-3-methyl-2-(naphthalene-2-sulfonylamino)-butyramide]

# Source: BindingDB's records for doi:10.1021/jm0201924 (Senju Pharmaceutical, 2003)
